Reference: patent publication US20260240820A1, “METHOD FOR CONTROLLING MEMBRANE POTENTIAL-DEPENDENT ION CHANNEL THROUGH TYPE I TASTE RECEPTORS (T1RS)” (ION CHAT RESEARCH CORPORATE, priority 2022, published 2026)
pIC50: −log10 of the molar value. “Also recorded” adds a separate entry of the source. Read-outs that look alike come from different tables or passages of the source.

Key:
[1] = tested on: VGSC of SH-SY5Y cells (Nav1.7, Nav1.2, Nav1.3); test: Patch-clamp recording of VGSC current in differentiated SH-SY5Y cells; assay type: cell-based, human; conditions: 5 μM
Description: Furthermore, the inventors focused on the relationship between taste receptors, particularly the sweet or umami receptors containing the T1R3 subunit, which are widely expressed in the brain and nervous system, including the hippocampus and cortex. They used human neuroblastoma cells (SH-SY5Y) that functionally express Nav1.2, Nav1.3, and Nav1.7 (as reported in non-patent literature 8), as well as HEK cells stably expressing Nav1.5 (with endogenous expression of T1R1, T1R2, and T1R3). They observed the effects of taste stimuli on sodium channel activation. By reducing the expression of T1R1 and T1R3 genes using silencing vectors, they confirmed that the effects on sodium channel currents induced by taste stimuli act through taste receptor GPCRs.
The SH-SY5Y cell culture medium was prepared by mixing DMEM (Sigma-Aldrich) and F-12 (Sigma-Aldrich) in equal proportions. To induce neuronal-like differentiation, the medium contained 1% FBS (BioWest), 5% 40 mM L-Glutamine (Fuji Film), and 1% MEM non-essential amino acids (Wako Pure Chemical Industries). During differentiation, SH-SY5Y cells were cultured for at least 5 days with the addition of 10 μM/ml retinoic acid (Fuji Film). In this document, “SH-SY5Y cells” refer to the SH-SY5Y cell line differentiated into neuronal-like cells.

[2] = tested on: SH-SY5Y cells; test: Action potentials of differentiated SH-SY5Y cells (current clamp, NanoCharge method); assay type: cell-based, human; conditions: pH6; current clamp
Procedure: Next, using the current-clamp mode, we applied current stimulation and recorded action potentials from differentiated SH-SY5Y cells (FIG. 5, from the lower to the upper part of the figure, rectangular wave current stimulation was applied. The current strengths were 6, 8, 10, and 12 pA from the bottom). Before the application of Aβ25-35 peptide, action potentials were not induced at stimulation currents of 6 pA and 8 pA, but action potentials were recorded at stronger stimulation currents (10 pA and 12 pA).
By using magnetic conductive nanoparticles as intracellular electrodes for measuring the neuronal action potentials of differentiated SH-SY5Y cells, and combining this with a capacitive potential detection device to measure changes in intracellular potentials, the spontaneous action potentials of these cells were measured. Specifically, 6.25 nM of the T1R3 agonist Aβ25-35 peptide was added to 400 μl of SH-SY5Y cell culture medium, and the spontaneous action potentials before and after the addition of Aβ25-35 peptide were measured to observe the changes.
This membrane potential recording method focuses on the magnetic conductive nanoparticles penetrating the cell membrane, the cover glass on which the cells are seeded, and the electrode placed below the cover glass forming a capacitor. The charge (Q) charged to this capacitor is recorded as the membrane potential in terms of charge rather than voltage changes. Since the charge (Q) is obtained from Q=CV, where C is the capacitance and V is the potential, the charge changes measured here are influenced by the capacitor (C) (FIG. 43).

[3] = tested on: Nav1.5 in T1R3-silenced HEK cells; test: VGSC current in HEK Nav1.5 cells with silenced T1R3; assay type: cell-based, human; conditions: for Effect on VGSC current: 20 μM (b565)
Outline: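 VGSC currents were recorded in HEK-Nav1.5 cells with T1R3 knocked down by a miRNA expression vector, stimulated every 8 s. The effect of Aβ25-35 peptide was compared with control HEK-Nav1.5 cells.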

[4] = when used for treatment of hypercalcemia; cited from earlier work
[5] = tested on: Nav1.5; test: Patch-clamp (voltage clamp) recording of VGSC current in HEK cells stably expressing Nav1.5; conditions: for pIC50: read-out: IC50 (VGSC inhibition)
[6] = tested on: HEK Nav1.5 cells; test: GFP-Tubulin / GFP-Actin cytoskeleton observation in HEK Nav1.5 cells; assay type: cell-based, human
Description: To observe the impact of cinacalcet and Aβ1-42 peptide on microfilament (actin) fiber structures, we labeled cells with GFP-Actin (FIG. 34). […] This experimental approach, using GFP-Tubulin, GFP-Actin, or other fluorescent proteins to label microtubules and microfilaments, can be used to screen compounds that regulate the activity of ion channels and neuronal function-controlling proteins. Additionally, simultaneous labeling of tubulin and actin can be achieved using fluorescent antibodies or phalloidin after cell fixation.

[7] = tested on: voltage-dependent potassium channel current of SH-SY5Y cells; test: Voltage clamp recording of outward potassium current in SH-SY5Y cells; assay type: cell-based, human; conditions: 5 μM
Description: The inward current represents the transient peak observed immediately after stimulation, while the outward current measures the average value during the last 50 ms of rectangular pulse stimulation.

[8] = tested on: VGSC; test: Patch-clamp recording of VGSC current, cell type not specified or several cell types (summary statements); assay type: cell-based, human
[9] = biological target: T1, T1R2/T1R3 (Homo sapiens, UniProt Q7RTX0+Q8TE23); conditions: Mailliet et al. (2009); read-out: IC50 for inhibition of the sucralose response of the sweet receptor (calcium imaging); cited from earlier work
T1 construct: host or cells: HEK cells overexpressing T1R2, T1R3 and G16-gust44 (Mailliet et al. 2009; Masuda et al. 2012)
T1 sequence (Q8TE23 20-839): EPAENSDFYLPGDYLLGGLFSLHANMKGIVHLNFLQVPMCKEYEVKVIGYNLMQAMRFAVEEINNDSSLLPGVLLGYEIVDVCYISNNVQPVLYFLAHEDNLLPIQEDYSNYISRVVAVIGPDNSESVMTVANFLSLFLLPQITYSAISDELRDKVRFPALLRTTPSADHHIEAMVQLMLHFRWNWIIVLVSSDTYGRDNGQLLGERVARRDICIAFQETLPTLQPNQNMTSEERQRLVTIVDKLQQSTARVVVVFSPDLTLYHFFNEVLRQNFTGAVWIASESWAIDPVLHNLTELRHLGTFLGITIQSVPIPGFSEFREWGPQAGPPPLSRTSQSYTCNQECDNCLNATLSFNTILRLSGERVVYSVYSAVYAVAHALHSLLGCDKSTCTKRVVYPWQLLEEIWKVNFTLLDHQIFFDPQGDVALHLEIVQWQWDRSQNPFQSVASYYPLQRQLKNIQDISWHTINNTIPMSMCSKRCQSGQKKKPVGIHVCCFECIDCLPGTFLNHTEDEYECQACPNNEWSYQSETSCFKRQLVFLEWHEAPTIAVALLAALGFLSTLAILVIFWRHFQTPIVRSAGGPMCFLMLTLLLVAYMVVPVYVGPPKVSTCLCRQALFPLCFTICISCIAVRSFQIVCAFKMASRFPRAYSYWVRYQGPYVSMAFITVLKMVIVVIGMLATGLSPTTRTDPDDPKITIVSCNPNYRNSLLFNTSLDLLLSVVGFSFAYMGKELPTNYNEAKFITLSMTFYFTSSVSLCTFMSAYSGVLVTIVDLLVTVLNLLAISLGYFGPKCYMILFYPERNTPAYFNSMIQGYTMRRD
T1 sequence (Q7RTX0 21-852): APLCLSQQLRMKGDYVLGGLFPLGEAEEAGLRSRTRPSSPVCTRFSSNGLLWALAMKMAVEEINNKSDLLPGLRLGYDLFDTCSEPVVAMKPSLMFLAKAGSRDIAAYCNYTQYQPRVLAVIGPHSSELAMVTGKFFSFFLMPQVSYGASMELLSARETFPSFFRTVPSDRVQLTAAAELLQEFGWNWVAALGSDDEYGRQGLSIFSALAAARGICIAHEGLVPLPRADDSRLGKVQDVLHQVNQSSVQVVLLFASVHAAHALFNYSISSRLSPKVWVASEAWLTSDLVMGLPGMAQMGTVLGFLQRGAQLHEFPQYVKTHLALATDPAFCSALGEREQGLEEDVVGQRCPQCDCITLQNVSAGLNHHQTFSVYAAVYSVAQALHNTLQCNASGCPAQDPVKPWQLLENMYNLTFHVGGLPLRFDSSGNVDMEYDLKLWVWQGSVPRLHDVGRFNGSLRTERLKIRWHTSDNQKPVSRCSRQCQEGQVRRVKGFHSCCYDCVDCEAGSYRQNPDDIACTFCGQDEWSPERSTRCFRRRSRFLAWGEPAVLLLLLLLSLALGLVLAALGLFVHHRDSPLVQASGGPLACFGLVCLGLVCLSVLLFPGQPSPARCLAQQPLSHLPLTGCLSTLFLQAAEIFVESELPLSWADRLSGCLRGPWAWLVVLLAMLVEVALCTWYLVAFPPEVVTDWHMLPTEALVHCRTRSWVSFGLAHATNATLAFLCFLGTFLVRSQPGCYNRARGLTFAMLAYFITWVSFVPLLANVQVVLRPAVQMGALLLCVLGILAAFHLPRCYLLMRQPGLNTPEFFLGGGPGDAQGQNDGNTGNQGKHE

C[C@@H](NCCCc1cccc(C(F)(F)F)c1)c1cccc2ccccc12 [Cinacalcet]
Effect on inward VGSC current [1]: inhibited
Effect on inward VGSC current ([1]; listed as cinacalcet): complete inhibition of both currents
Effect on VGSC-dependent action potentials under acidic conditions [2]: inhibited VGSC-dependent action potentials
Effect on VGSC current [3]: no change in VGSC current was observed
Effect on VGSC current ([3]; listed as cinacalcet): no observable effect
Effect on VGSC in T1R3-silenced cells ([3]; listed as cinacalcet): no VGSC inhibitory effect was observed; also recorded: T1R3 silencing nullifies ab25-35's
Plasma concentration [4]: 50 nM
Effect on VGSC (Na+) current under acidic conditions ([5]; 5 μM, pH 6): gradually inhibited; also recorded: exhibited VGSC inhibition
Effect on VGSC currents ([5]; 20 μM, control HEK Nav1.5 cells): completely inhibits VGSC currents
Effect on leak (baseline) current ([5]; when VGSC inhibition nearly complete): reduced leak currents
Microfilament structure (GFP-Actin) [6]: condensed GFP-Actin structures
Effect on outward potassium current [7]: inhibited
Effect on outward potassium current ([7]; listed as cinacalcet): complete inhibition of both currents
Effects on VGSCs [8]: Inhibition of VGSCs
Effect on VGSC activity ([8]; 5 μM): completely inhibits VGSC activity
Inhibitory effect on VGSC when tubulin polymerization is inhibited by Colchicine ([8]; Colchicine treated cells): still inhibited VGSC currents
Inhibitory effect on VGSC when actin polymerization is inhibited by Cytochalasin D ([8]; Cytochalasin D treated cells): inhibited by cytochalasin D treatment
Required concentration for VGSC inhibition ([8]; HEK Nav1.5 and SH-SY5Y): 5 µM
Effects on VGSCs ([8]; listed as cinacalcet): inhibited human VGSC

CCOC(=O)C(C)(C)Oc1ccc(Cl)cc1 [Clofibrate]
pIC50 ([5]; prepulse −80 mV): 3.24
pIC50 ([5]; prepulse −100 mV): 2.92
pIC50 ([5]; prepulse −120 mV): 2.98
pIC50 [9]: 4.55
